Source: patent publication US20260315446A1, “ANTIFUNGAL COMPOUNDS AND USES THEREOF” (priority 2023, published 2026)

Columns and labels:
[1] = biological target: T1, C. albicans FKBP12 and CnA-CnB-calmodulin complex (UniProt C4YFI3+C4YS24+P28870); assay: Biolayer interferometry ternary complex formation; type: binding, Candida albicans; conditions: BLI, 10 μM compound, steady-state and kinetic analyses
T1 construct: N-tagged CnA 54-609, untagged CnB and calmodulin co-expressed in Tni insect cells
T1 sequence (P28870 whole entry): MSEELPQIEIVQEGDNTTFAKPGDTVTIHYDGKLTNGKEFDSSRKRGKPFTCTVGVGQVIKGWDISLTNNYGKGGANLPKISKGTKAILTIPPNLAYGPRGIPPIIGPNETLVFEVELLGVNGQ
T1 sequence (C4YFI3 54-609): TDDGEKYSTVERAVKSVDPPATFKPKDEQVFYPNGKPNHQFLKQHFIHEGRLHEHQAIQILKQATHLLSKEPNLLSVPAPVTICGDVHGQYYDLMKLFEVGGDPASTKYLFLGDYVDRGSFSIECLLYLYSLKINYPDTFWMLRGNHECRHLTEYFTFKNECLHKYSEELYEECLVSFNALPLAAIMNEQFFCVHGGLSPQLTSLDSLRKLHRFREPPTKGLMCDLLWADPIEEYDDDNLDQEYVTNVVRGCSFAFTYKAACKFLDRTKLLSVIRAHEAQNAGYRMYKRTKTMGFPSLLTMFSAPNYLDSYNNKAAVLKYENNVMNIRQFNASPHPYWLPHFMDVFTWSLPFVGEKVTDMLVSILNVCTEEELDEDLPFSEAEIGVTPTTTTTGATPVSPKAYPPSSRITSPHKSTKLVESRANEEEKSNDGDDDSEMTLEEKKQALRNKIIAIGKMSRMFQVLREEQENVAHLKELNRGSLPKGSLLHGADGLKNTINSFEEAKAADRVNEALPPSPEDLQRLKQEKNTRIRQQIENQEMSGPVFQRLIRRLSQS
T1 sequence (C4YS24 1-173): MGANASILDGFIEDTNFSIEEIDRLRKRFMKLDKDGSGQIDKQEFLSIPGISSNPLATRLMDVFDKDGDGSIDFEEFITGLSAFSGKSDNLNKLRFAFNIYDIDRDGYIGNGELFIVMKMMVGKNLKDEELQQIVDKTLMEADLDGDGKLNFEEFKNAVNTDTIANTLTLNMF
T1 sequence (P23286 whole entry partner): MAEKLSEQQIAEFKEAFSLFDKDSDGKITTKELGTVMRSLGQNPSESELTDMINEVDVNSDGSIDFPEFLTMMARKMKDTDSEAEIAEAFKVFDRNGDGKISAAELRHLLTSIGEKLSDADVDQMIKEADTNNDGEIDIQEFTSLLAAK
Procedure: To better understand the relationship between structure and activity of these analogs, FK506 analog, JH-FK-02 was tested, and one FK520 analog, JH-FK-05 was tested, for their binding dynamics to CnA and CnB by biolayer interferometry (BLI). Purified and biotinylated (Avi-tagged) FKBP12 from A. fumigatus and C. albicans were loaded onto streptavidin sensors in the presence of an inhibitor, followed by titration of the respective CnA-CnB-calmodulin complex, also in the presence of an inhibitor. Data were double referenced using parallel reference sensors and sample blanks.
Biolayer interferometry (BLI) experiments were completed using either A. fumigatus or C. albicans FKBP12 and CnA/CnB/calmodulin complexes, along with compounds FK506, APX879, FK520, JH-FK-02, and JH-FK-05. Initial buffer (25 mM Tris, 200 mM NaCl, and 1 mM TCEP [pH 8.0]) was prepared using 1 M Tris-HCl (pH 8.0, catalog no. T1080; Teknova), 5 M sodium chloride (catalog no. S0251; Teknova), TCEP (catalog no. M115; Soltec Ventures, Inc.), and was readjusted to pH 8 before sterile filtering. […]
Data were processed and analyzed using ForteBio Data Analysis software version 11.1.3.10. […] Kinetics data were analyzed using the “association and dissociation curve fitting” option utilizing a 1:1 model. […]

C. neoformans H99 = assay: Intravenous model of disseminated cryptococcosis, brain fungal burden (Example 1); type: in vivo, Cryptococcus neoformans in mice
From the text: The high in vitro antifungal activity of JH-FK-05 presented promising evidence that it might effectively reduce fungal burden in the context of murine infection. Two models of C. neoformans infection were employed to test this hypothesis (FIG. 7A). First, in the intranasal model, animals were anesthetized and infected with 10^5 cells of wild-type H99 C. neoformans via instillation in the animal's nares. These animals were monitored for 14 days and then sacrificed. This model tests the efficacy of JH-FK-05 to treat a pulmonary infection, which is the most common manifestation of early-stage cryptococcosis in patients. Second, the intravenous (i.v.) model approximates the disseminated stage of disease. […]
Wild-type H99 C. neoformans cells were grown overnight at 30° C. in a roller drum in yeast extract-peptone-dextrose (YPD) medium. […] H99 cells were counted with a hemacytometer and diluted to 2×10^6 cells/mL in PBS for the pulmonary model and 2×10^5 cells/mL in PBS for the disseminated model. […]
Mice were euthanized by CO2 inhalation at the predetermined experimental endpoint. […] A 100-μL aliquot of each dilution was plated on antibiotic plates (YPD, 50 μg/mL ampicillin, and 30 µg/mL chloramphenicol), incubated for 48 to 72 h at 30° C., and assessed for CFU. […] Statistical significance was calculated using an ordinary one-way analysis of variance (ANOVA) with Tukey's multiple-comparison test.

C. neoformans strain H99 = assay: Histopathological analysis of lung tissue; type: in vivo, Cryptococcus neoformans in A/J mice; conditions: infected lung, PAS and H&E staining
[2] = in vivo; cited from earlier work

CC[C@@H]1/C=C(\C)C[C@H](C)C[C@H](OC)[C@H]2O[C@@](O)(C(=O)C(=O)N3CCCC[C@H]3C(=O)O[C@H](/C(C)=C/[C@@H]3CC[C@@H](O)[C@H](OC)C3)[C@H](C)[C@@H](O)C/C1=N/NC(C)=O)[C@H](C)C[C@@H]2OC [JH-FK-05]
affinity of target complex formation in presence of analog [1]: affinities similar to those of the parent compounds
reduction of brain fungal burden (C. neoformans H99; day 7, JH-FK-05 60 mg/kg, fluconazole 12 mg/kg, i.p. daily): 2 fold
blood-brain barrier crossing (C. neoformans H99; inferred from brain fungal burden): can cross the blood-brain barrier

CC[C@@H]1/C=C(\C)C[C@H](C)C[C@H](OC)[C@H]2O[C@@](O)(C(=O)C(=O)N3CCCC[C@H]3C(=O)O[C@H](/C(C)=C/C3CC[C@@H](O)[C@H](OC)C3)[C@H](C)[C@@H](O)C/C1=N/NC(=O)OC)[C@H](C)C[C@@H]2OC (stereo partly drawn) [JH-FK-08]
inflammatory response in lung tissue (C. neoformans strain H99): expected granulomatous inflammatory response admixed with mature lymphocytes and neutrophils

C=CCC1C=C(C)CC(C)CC(OC)C2OC(O)(C(=O)C(=O)N3CCCCC3C(=O)OC(C(C)=CC3CCC(O)C(OC)C3)C(C)C(O)CC1=O)C(C)CC2OC (stereo not drawn) [FK506, reference compound]
blood brain barrier crossing [2]: known to cross the blood brain barrier

C=CC[C@@H]1/C=C(\C)C[C@H](C)C[C@H](OC)[C@H]2O[C@@](O)(C(=O)C(=O)N3CCCC[C@H]3C(=O)O[C@H](/C(C)=C/[C@@H]3CC[C@@H](O)[C@H](OC)C3)[C@H](C)[C@@H](O)C/C1=N/NC(=O)CC)[C@H](C)C[C@@H]2OC [JH-FK-02]
affinity of target complex formation in presence of analog [1]: affinities similar to those of the parent compounds
